Our source for the IC50 values is patent US6384061B1, “Hydantoin compounds and methods related thereto” (LG Chemical Ltd., priority 2000, dated 2002).

Each structure is given as a SMILES string.

For one assay, the target named is T1, Ras farnesyl transferase (Homo sapiens, UniProt P49354+P49356).
T1 construct: made in house
Put plainly: Ras farnesyl transferase inhibiting activity (filter-binding, tritium-farnesylpyrophosphate, Ras-CVLS substrate). The format is biochemical. The following applies: recombinant Ras farnesyl transferase, 30 minutes at 37° C., read-out: Ftase IC50.

The test system of assay [1] is intracellular Ras farnesyl transferase, Rat2 cell line. The experiment in a line: Intracellular Ras farnesyl transferase inhibiting activity in transformed Rat2 cells (35S-methionine labelling, Y13-259 immunoprecipitation, SDS-PAGE). The settings on record: Rattus norvegicus; transformed Rat2 fibroblast cell line; concentration inhibiting 50% of farnesyl binding of Ras protein; read-out: Ftase CIC50. The format is cell-based. The procedure, abridged:
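Rat2 fibroblasts transformed with H-Ras, or with H-Ras carrying the K-Ras polybasic lysine C-terminus, were treated with compound (1% DMSO). After 4 h they were labelled for 20 h with 150 μCi/ml 35S-methionine. Lysates were immunoprecipitated with Y13-259, run on 13.5% SDS-PAGE and autoradiographed; CIC50 is the concentration halving farnesylated versus unfarnesylated Ras band intensity.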

Assay [2] deals with T2, Geranylgeranyl transferase (Bos taurus, UniProt P29702+Q5EAD5).
T2 construct: Geranylgeranyl transferase was purified from bovine brain; from tissue; host or cells: bovine brain
Put plainly: Geranylgeranyl transferase inhibiting activity (geranylgeranyl pyrophosphate, Ras-CVIL substrate). The format is biochemical. The settings on record: geranylgeranyl transferase purified from bovine brain, read-out: GGtase IC50. The procedure, abridged:
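Bovine-brain-purified enzyme run as in the farnesyl transferase assay, with geranylgeranyl pyrophosphate and Ras-CVIL substrate protein under similar reaction conditions.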

Turning to `CC1(c2cccc3ccccc23)NC(=O)N(CCCc2cncn2Cc2ccc(C#N)cc2)C1=O` (stereo not drawn) [Compound 45, 4-{5-[3-(4-methyl-4-naphthalen-1-yl-2,5-dioxo-imidazolidin-1-yl)-propyl]-imidazol-1-ylmethyl}benzonitrile], the IC50 on Ras farnesyl transferase is 5.5 µM; in assay [1], below 20 µM; in assay [2], above 10 µM.

On to `CN1C(=O)N(CCCc2cncn2Cc2ccc(C#N)cc2)C(=O)C1(C)c1cccc2ccccc12` (stereo not drawn) [Compound 46, 4-{5-[3-(3-methyl-4-methyl-4-naphthalen-1-yl-2,5-dioxo-imidazolidin-1-yl)-propyl]-imidazol-1-ylmethyl}-benzonitrile], for which the IC50 at Ras farnesyl transferase is 0.044 µM; in assay [1] it was below 20 µM; in assay [2], above 10 µM.

For the compound `CCN1C(=O)N(CCCc2cncn2Cc2ccc(C#N)cc2)C(=O)C1(C)c1cccc2ccccc12` (stereo not drawn) [Compound 47, 4-{5-[3-(3-ethyl-4-methyl-4-naphthalen-1-yl-2,5-dioxo-imidazolidin-1-yl)-propyl]-imidazol-1-ylmethyl}benzonitrile], the IC50 on Ras farnesyl transferase is 0.018 µM; in assay [1], below 20 µM; in assay [2], above 10 µM.

`CCCN1C(=O)N(CCCc2cncn2Cc2ccc(C#N)cc2)C(=O)C1(C)c1cccc2ccccc12` (stereo not drawn) [Compound 48, 4-{5-[3-(3-propyl-4-methyl-4-naphthalen-1-yl-2,5-dioxo-imidazolidin-1-yl)-propyl]-imidazol-1-ylmethyl}benzonitrile]: the IC50 on Ras farnesyl transferase was 0.04 µM; in assay [1], below 20 µM; in assay [2], above 10 µM.

Regarding `CCCCN1C(=O)N(CCCc2cncn2Cc2ccc(C#N)cc2)C(=O)C1(C)c1cccc2ccccc12` (stereo not drawn) [Compound 49, 4-{5-[3-(3-butyl-4-methyl-4-naphthalen-1-yl-2,5-dioxo-imidazolidin-1-yl)-propyl]-imidazol-1-ylmethyl}benzonitrile], the IC50 on Ras farnesyl transferase was 0.055 µM; in assay [1], below 20 µM; in assay [2], above 10 µM.

With `COCCOCN1C(=O)N(CCCc2cncn2Cc2ccc(C#N)cc2)C(=O)C1(C)c1cccc2ccccc12` (stereo not drawn) [Compound 50, 4-(5-{3-[3-(2-methoxy-ethoxymethyl)-4-methyl-4-naphthalen-1-yl-2,5-dioxo-imidazolidin-1-yl]-propyl}-imidazol-1-ylmethyl)-benzonitrile], the IC50 at Ras farnesyl transferase was 0.055 µM; in assay [1], below 20 µM; in assay [2], above 10 µM.

In the case of `CCOC(=O)CN1C(=O)N(CCCc2cncn2Cc2ccc(C#N)cc2)C(=O)C1(C)c1cccc2ccccc12` (stereo not drawn) [Compound 51, (3-{3-[3-(4-cyanobenzyl)-3H-imidazol-4-yl]-propyl}-5-methyl-5-naphthalen-1-yl-2,4-dioxo-imidazolidin-1-yl)-acetic acid ethyl ester], the values for the IC50 (at Ras farnesyl transferase; in assay [1]; in assay [2]) were 0.019 µM, below 20 µM and above 10 µM, respectively.

`CC1(c2cccc3ccccc23)C(=O)N(CCCc2cncn2Cc2ccc(C#N)cc2)C(=O)N1CC(=O)O` (stereo not drawn) [Compound 52, (3-{3-[3-(4-cyanobenzyl)-3H-imidazol-4-yl]-propyl}-5-methyl-5-naphthalen-1-yl-2,4-dioxo-imidazolidin-1-yl)-acetic acid]: the results for the IC50 (on Ras farnesyl transferase; in assay [1]; in assay [2]) were 0.019 µM, below 20 µM and above 10 µM, respectively.

Regarding `CC1(c2cccc3ccccc23)C(=O)N(CCCc2cncn2Cc2ccc(C#N)cc2)C(=O)N1Cc1ccccc1` (stereo not drawn) [Compound 53, 4-(5-{3-[3-benzyl-4-methyl-4-naphthalen-1-yl-2,5-dioxo-imidazolidin-1-yl]-propyl}-imidazol-1-ylmethyl)-benzonitrile], the values for the IC50 (on Ras farnesyl transferase; in assay [1]; in assay [2]) were 0.065 µM, below 20 µM and above 10 µM, respectively.

Regarding `CC1(c2cccc3ccccc23)C(=O)N(CCCc2cncn2Cc2ccc(C#N)cc2)C(=O)N1Cc1cccc(C#N)c1` (stereo not drawn) [Compound 54, 4-(5-{3-[3-(3-cyano-benzyl)-4-methyl-4-naphthalen-1-yl-2,5-dioxo-imidazolidin-1-yl]-propyl}-imidazol-1-ylmethyl)-benzonitrile], the IC50 on Ras farnesyl transferase was 0.05 µM; in assay [1], below 20 µM; in assay [2], above 10 µM.
